Patent US11467159B2, “Luminescent phospholipid analogs for the identification and isolation of circulating tumor cells” (CELLECTAR BIOSCIENCES, INC., priority 2016, dated 2022)

What was measured:
[1] = system: xenograft and spontaneous tumor models; conditions: over 55 xenograft and spontaneous tumor models; cited from earlier work
circulating tumor cells = assay: Flow cytometry identification and enumeration of circulating tumor cells in mononuclear cells from cancer patients' whole blood stained with CLR1501; format: cell-based, human; conditions: for CK−/EpCAM−/CLR1501+ cells (number): CD45−, CD14−, CD34−, nucleated
Text: (§1) Whole blood was collected in either Cell Save® collection tubes or ethylenediaminetetraacetic acid (“EDTA”) collection tubes from seven cancer patients with lung (patients 101 and 103), thyroid (patient 102), breast (patient 106), cervical (patient 104), squamous cell carcinoma (107), and colorectal (patient 108) cancer prior to (draw 1) and after (draw 2) therapy, when available. Mononuclear cells were isolated from the whole blood using a Ficoll-Paque density gradient. Cells from each patient were then incubated with an Fc blocker. The cells were then stained with fluorescently-tagged antibodies to CD45, CD14, CD34, EpCAM, and pan-Cytokeratin (CK), and a fluorescent PLE analog (“CLR1501”) for 30 minutes. Cells were then analyzed by flow cytometry to indicate the number of cells from each whole blood sample that were positive and/or negative for a particular marker. According to the current definition, CTCs were identified as live cells that were CD45−, CD14−, CD34−, CK+, and EpCAM+ (“by definition”). Due to prior experience with CD14+ monocytes/macrophages (FIG. 1), CD14+ cells were removed from the analyses due to high uptake of CLR1501. CD34+ normal […] cells were also removed from the analyses.
The first row of Tables 1 and 2 depicts the number of cells from each patient's blood draw that fulfilled the definition of a CTC: CD45−, CD14−, CD34−, CK+, and EpCAM+, and contained a nucleus. The second row depicts the number of cells from each patient's blood draw that were CD45−, CD14−, CD34−, CK+, and contained a nucleus. The third row depicts the number of cells from each patient's blood draw that were CLR 1501+, CD45−, CD14−, CD34−, CK+, and contained a nucleus. The fourth row depicts the number of cells from each patient's blood draw that were CD45−, CD14−, CD34−, and EpCAM+ and contained a nucleus. The fifth row depicts the number of cells from each patient's blood draw that were CLR 1501+, CD45−, CD14−, CD34−, and EpCAM+ and contained a nucleus. The sixth row depicts the number of cells from each patient's blood draw that were CLR 1501+, CD45−, CD14−, CD34−, CK−, and EpCAM−, and contained a nucleus.

[2] = system: CD14+ monocytes/macrophages; assay: Flow cytometry uptake of CLR1501 in CD14+ cells of patient blood (FIG. 1); format: cell-based, human
Text: FIG. 1. […] Upper left quadrant indicates CD14−/CLR1501+ cells, upper right indicates CD14+/CLR1501+, bottom right indicates CD14+/CLR1501−, and bottom left indicates CD14−/CLR1501.
Whole blood was collected in either Cell Save® collection tubes or ethylenediaminetetraacetic acid (“EDTA”) collection tubes from seven cancer patients with lung (patients 101 and 103), thyroid (patient 102), breast (patient 106), cervical (patient 104), squamous cell carcinoma (107), and colorectal (patient 108) cancer prior to (draw 1) and after (draw 2) therapy, when available. Mononuclear cells were isolated from the whole blood using a Ficoll-Paque density gradient. Cells from each patient were then incubated with an Fc blocker. The cells were then stained with fluorescently-tagged antibodies to CD45, CD14, CD34, EpCAM, and pan-Cytokeratin (CK), and a fluorescent PLE analog (“CLR1501”) for 30 minutes. Cells were then analyzed by flow cytometry to indicate the number of cells from each whole blood sample that were positive and/or negative for a particular marker. According to the current definition, CTCs were identified as live cells that were CD45−, CD14−, CD34−, CK+, and EpCAM+ (“by definition”). Due to prior experience with CD14+ monocytes/macrophages (FIG. 1), CD14+ cells were removed from the analyses due to high uptake of CLR1501. CD34+ normal […] cells were also removed from the analyses. […]

CD45+ and CD34+ cells = assay: Flow cytometry uptake of CLR1501 in remaining CD45+ and CD34+ cells of patient blood; format: cell-based, human; conditions: same patient, in comparison with CD14+ cells
Text: as §1

C[N+](C)(C)CCOP(=O)([O-])OCCCCCCCCCCCCCCCCCCc1ccc(I)cc1 [CLR1404]
uptake and retention in tumors [1]: selective uptake and prolonged retention in tumors

C[N+](C)(C)CCOP(=O)([O-])OCCCCCCCCCCCCCCCCCCc1ccc(C2=C3C=CC=[N+]3[B-](F)(F)n3cccc32)cc1 [CLR1501]
CK−/EpCAM−/CLR1501+ cells (number) (circulating tumor cells; Cell Save tube, patient 101 draw 1, lung cancer): 1.4 M
CK−/EpCAM−/CLR1501+ cells (number) (circulating tumor cells; Cell Save tube, patient 101 draw 2, lung cancer): 121,696 cells
CK−/EpCAM−/CLR1501+ cells (number) (circulating tumor cells; Cell Save tube, patient 102 draw 1, thyroid cancer): 6.7 M
CK−/EpCAM−/CLR1501+ cells (number) (circulating tumor cells; Cell Save tube, patient 102 draw 2, thyroid cancer): 7.9 M
CK−/EpCAM−/CLR1501+ cells (number) (circulating tumor cells; Cell Save tube, patient 103, lung cancer): 5.3 M
CK−/EpCAM−/CLR1501+ cells (number) (circulating tumor cells; Cell Save tube, patient 104 draw 1, cervical cancer): 1.3 M
CK−/EpCAM−/CLR1501+ cells (number) (circulating tumor cells; Cell Save tube, patient 106, breast cancer): 278 cells
CK−/EpCAM−/CLR1501+ cells (number) (circulating tumor cells; Cell Save tube, patient 107, carcinoma): 611,622 cells
CK−/EpCAM−/CLR1501+ cells (number) (circulating tumor cells; Cell Save tube, patient 108 draw 1, colorectal cancer): 1,062 cells
CK−/EpCAM−/CLR1501+ cells (number) (circulating tumor cells; Cell Save tube, patient 108 draw 2, colorectal cancer): 1.1 M
CK−/EpCAM−/CLR1501+ cells (number) (circulating tumor cells; EDTA tube, patient 101 draw 1, lung cancer): 1.8 M
CK−/EpCAM−/CLR1501+ cells (number) (circulating tumor cells; EDTA tube, patient 101 draw 2, lung cancer): 30,222 cells
CK−/EpCAM−/CLR1501+ cells (number) (circulating tumor cells; EDTA tube, patient 102 draw 1, thyroid cancer): 1.5 M
CK−/EpCAM−/CLR1501+ cells (number) (circulating tumor cells; EDTA tube, patient 102 draw 2, thyroid cancer): 10.9 M
CK−/EpCAM−/CLR1501+ cells (number) (circulating tumor cells; EDTA tube, patient 103, lung cancer): 2.5 M
CK−/EpCAM−/CLR1501+ cells (number) (circulating tumor cells; EDTA tube, patient 104, cervical cancer): 4.0 M
CK−/EpCAM−/CLR1501+ cells (number) (circulating tumor cells; EDTA tube, patient 106, breast cancer): 19,585 cells
CK−/EpCAM−/CLR1501+ cells (number) (circulating tumor cells; EDTA tube, patient 107, carcinoma): 147,641 cells
CK−/EpCAM−/CLR1501+ cells (number) (circulating tumor cells; EDTA tube, patient 108 draw 1, colorectal cancer): 29,584 cells
CK−/EpCAM−/CLR1501+ cells (number) (circulating tumor cells; EDTA tube, patient 108 draw 2, colorectal cancer): 753,387 cells
CK+ cells identified by CLR 1501 (circulating tumor cells; all cancer types, either blood collection tube, listed as 2 vs row 3 of Table 1 or 2): 99-100%
EpCAM+ cells identified by CLR 1501 (circulating tumor cells; all cancer types, either blood collection tube, listed as 4 vs row 5 of Table 1 or 2): 35-100%
uptake of CLR1501 by CTCs (by definition) (circulating tumor cells; all seven patient samples): positive uptake
uptake of CLR1501 in CD14+ cells ([2]; CD14+ monocytes/macrophages, FIG. 1): high uptake
cells positive for CD14+ that are also positive for CLR1501 ([2]; CD45−, CD34− cells from patient 108 (colorectal cancer), FIG. 1 panel B): 99.7%
uptake of CLR1501 by remaining CD45+ and CD34+ cells (CD45+ and CD34+ cells): not take up CLR1501 to a large extent
